“And” between values parts separate entries of the source, which are not always exact repeats. Identical values can stand only once. Like-named read-outs stand apart in the source and are kept apart here.
Columns and labels:
[1] = test system: H5/Viet HA (A/Vietnam/1203/2004 (H5N1)); type: binding, influenza A virus
[2] = target: T1, H1/PR8 HA (A/Puerto Rico/8/1934 (H1N1)) (Influenza A virus, UniProt P03452); test: Trypsin susceptibility (TS) assay; type: biochemical; conditions: pH 5.0; 50 μM CP1 or 10 μM CR9114 Fab, 5 μM HA
T1 construct: The HA ectodomain was expressed using a baculovirus expression system in Sf9 cells; gp67 signal peptide (N); thrombin site (C); BirA biotinylation site (C); trimerization domain (C); His-tag (C); made in house; host or cells: Sf9 cells (baculovirus)

[3] = target: H1N1 A/duck/Alberta/345/1976 HA; type: binding, influenza A virus
[4] = test system: group 1 H1/Cal, H1/NCa, and H5/Viet HAs; type: binding, influenza A virus
[5] = target: H7N7 A/Netherlands/219/2003 HA; type: binding, influenza A virus
[6] = test system: H1/NCa HA (A/New Caledonia/20/1999 (H1N1)); type: binding, influenza A virus
[7] = target: H4N6 A/duck/Czechoslovakia/1956 HA (Influenza A virus, UniProt P19696); type: binding
[8] = target: H15N9 A/shearwater/W. Australia/2576/79 HA; type: binding, influenza A virus
H2N2 A/Adachi/2/1957 HA = type: binding, influenza A virus
[9] = target: H12N5 A/duck/Alberta/60/1976 HA; type: binding, influenza A virus
[10] = test system: H1N1 A/Brisbane/59/2007 (H1/Bri) HA; type: biochemical, influenza A virus; conditions: pH 5.25
[11] = target: B/Massachusetts/02/2012 HA (Yamagata lineage); type: binding, influenza B virus
[12] = target: H3N2 A/Victoria/361/2011 HA; type: binding, influenza A virus
[13] = target: H3N2 A/Hong Kong/1/1968 HA (Influenza A virus, UniProt Q91MA7); type: binding
[14] = target: H6N2 A/turkey/Massachusetts/3740/1965 HA; type: binding, influenza A virus
[15] = target: H1/NCa HA (H1N1 A/New Caledonia/20/1999); type: binding, influenza A virus
[16] = target: H1N1 A/Solomon Islands/3/2006 HA; type: binding, influenza A virus
[17] = In vitro cell permeability assay; conditions: for efflux ratio: LLC-PK1, Efflux ratio BA/AB; for efflux ratio / Papp B→A: LLC-Parent; for Papp B→A: LLC-PK1, Papp BA, basolateral to apical
[18] = target: H16N3 A/black-headed gull/Sweden/4/1999 HA; type: binding, influenza A virus
[19] = target: H14N5 A/mallard/Astrakhan/263/1982 HA (Influenza A virus, UniProt P26136); type: binding
[20] = target: B/Brisbane/33/2008 HA (Victoria lineage); type: binding, influenza B virus
[21] = target: H11N6 A/duck/England/1/1956 HA; type: binding, influenza A virus
[22] = test system: H1/Cal HA (H1N1 A/California/07/2009); type: binding, influenza A virus
[23] = target: H9N2 A/turkey/Wisconsin/1/1966 HA; type: binding, influenza A virus
[24] = test system: H5/Viet virus (A/Vietnam/1203/2004 (H5N1))
[25] = test system: H1/Cal HA (A/California/07/2009 (H1N1)); type: binding, influenza A virus
[26] = In vitro cell permeability / P-gp substrate assay; conditions: for Papp A→B: LLC-PK1, Papp AB, LLC-MDR1, apical to basolateral; for Papp B→A: LLC-PK1, Papp BA, LLC-MDR1, basolateral to apical
[27] = target: H10N7 A/chicken/Germany/N/1949 HA (Influenza A virus, UniProt P12581); type: binding
[28] = test system: group 1 H1/Cal, H1/NCa, and H5/Viet HAs; type: binding, influenza A virus; remark: listed apart in the source
[29] = test system: H5/Viet HA (H5N1 A/Vietnam/1203/2004); type: binding, influenza A virus
[30] = test system: group 2 or influenza B HAs; type: binding, influenza A and B viruses

T1 sequence (P03452 18-528 limits assumed): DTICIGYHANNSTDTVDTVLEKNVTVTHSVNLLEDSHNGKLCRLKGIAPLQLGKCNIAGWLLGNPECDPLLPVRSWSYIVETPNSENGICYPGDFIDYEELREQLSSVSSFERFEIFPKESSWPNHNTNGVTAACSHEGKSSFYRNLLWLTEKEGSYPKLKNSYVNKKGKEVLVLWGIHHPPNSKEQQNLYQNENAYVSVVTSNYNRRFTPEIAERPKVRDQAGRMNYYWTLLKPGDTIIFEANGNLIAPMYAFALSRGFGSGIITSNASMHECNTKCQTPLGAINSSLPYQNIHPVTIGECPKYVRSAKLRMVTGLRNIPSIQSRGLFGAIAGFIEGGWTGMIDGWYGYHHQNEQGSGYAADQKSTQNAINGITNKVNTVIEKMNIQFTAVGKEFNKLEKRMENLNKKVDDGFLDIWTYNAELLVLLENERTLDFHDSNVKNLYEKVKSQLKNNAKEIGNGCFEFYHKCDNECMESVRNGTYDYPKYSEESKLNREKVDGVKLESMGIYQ
Sequence of H3N2 A/Hong Kong/1/1968 HA (Q91MA7 17-530 limits assumed): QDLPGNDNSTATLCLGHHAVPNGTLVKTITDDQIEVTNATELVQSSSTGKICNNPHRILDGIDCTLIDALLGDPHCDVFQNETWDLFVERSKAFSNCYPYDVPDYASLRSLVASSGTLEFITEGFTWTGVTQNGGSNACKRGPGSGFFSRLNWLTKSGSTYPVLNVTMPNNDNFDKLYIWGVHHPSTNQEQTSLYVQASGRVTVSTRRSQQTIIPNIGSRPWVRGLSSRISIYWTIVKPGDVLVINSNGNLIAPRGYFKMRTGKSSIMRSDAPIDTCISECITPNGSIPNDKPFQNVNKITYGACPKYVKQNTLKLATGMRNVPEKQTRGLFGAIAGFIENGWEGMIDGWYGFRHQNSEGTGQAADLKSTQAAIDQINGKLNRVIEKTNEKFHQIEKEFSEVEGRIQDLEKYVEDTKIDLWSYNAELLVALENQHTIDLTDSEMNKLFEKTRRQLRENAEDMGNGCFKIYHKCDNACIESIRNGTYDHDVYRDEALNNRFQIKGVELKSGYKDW
Sequence of H14N5 A/mallard/Astrakhan/263/1982 HA (P26136 18-531 limits assumed): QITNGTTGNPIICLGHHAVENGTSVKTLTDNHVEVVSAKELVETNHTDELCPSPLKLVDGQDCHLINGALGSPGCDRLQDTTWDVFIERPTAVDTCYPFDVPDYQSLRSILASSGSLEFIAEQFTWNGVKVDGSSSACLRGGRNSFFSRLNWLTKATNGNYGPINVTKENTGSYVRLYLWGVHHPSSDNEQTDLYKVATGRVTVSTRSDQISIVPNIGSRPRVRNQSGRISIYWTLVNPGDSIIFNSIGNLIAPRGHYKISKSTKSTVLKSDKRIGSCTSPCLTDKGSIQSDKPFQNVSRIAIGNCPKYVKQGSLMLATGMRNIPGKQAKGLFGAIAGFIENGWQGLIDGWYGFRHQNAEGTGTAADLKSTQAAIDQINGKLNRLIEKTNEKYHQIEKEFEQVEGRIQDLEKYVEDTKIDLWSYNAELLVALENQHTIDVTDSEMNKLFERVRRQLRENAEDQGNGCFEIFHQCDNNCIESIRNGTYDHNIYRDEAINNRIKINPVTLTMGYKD
Sequence of H10N7 A/chicken/Germany/N/1949 HA (P12581 17-524 limits assumed): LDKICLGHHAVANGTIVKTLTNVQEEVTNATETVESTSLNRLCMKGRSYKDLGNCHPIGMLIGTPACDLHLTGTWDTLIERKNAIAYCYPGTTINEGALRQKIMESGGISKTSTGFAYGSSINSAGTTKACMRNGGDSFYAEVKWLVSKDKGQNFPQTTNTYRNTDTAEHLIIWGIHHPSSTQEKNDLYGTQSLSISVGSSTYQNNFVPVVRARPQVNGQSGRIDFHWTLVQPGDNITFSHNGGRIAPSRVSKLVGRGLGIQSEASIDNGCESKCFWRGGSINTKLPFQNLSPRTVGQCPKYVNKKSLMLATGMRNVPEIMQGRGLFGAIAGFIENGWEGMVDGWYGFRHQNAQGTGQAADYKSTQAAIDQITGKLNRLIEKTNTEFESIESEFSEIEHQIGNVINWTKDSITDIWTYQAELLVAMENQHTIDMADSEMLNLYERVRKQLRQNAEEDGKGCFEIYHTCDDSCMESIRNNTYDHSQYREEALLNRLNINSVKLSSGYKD
Sequence of H4N6 A/duck/Czechoslovakia/1956 HA (P19696 17-527 limits assumed): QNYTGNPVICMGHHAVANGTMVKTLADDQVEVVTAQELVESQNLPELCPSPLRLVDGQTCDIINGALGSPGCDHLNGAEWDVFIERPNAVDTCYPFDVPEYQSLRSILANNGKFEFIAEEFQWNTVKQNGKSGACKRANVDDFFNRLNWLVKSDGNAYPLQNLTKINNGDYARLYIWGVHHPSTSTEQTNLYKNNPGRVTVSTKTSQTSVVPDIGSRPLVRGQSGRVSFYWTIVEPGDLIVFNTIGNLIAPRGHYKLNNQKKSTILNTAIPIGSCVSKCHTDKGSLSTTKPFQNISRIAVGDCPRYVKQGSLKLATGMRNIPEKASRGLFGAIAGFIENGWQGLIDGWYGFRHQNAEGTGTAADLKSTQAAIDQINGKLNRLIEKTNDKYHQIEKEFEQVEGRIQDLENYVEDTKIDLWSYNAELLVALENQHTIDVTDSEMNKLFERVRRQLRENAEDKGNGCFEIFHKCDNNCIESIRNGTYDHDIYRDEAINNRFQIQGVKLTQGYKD

## CSCC[C@@H]1NC(=O)CNC(=O)CNC(=O)[C@H](C)NC(=O)[C@H](C(C)C)NC(=O)CNC(=O)[C@H](CC(C)C)NC(=O)[C@@H]2CCCN2C(=O)[C@H](CC(=O)O)NC(=O)[C@H](CCC(=O)O)NC(=O)[C@H](Cc2ccc(O)cc2)NC(=O)[C@H](CC(C)C)NC(=O)[C@H](CO)NC(=O)[C@H](C(C)C)NC(=O)[C@H]2CCCN2C(=O)[C@@H]2CCCN2C(=O)[C@H](Cc2ccc(O)cc2)NC(=O)[C@H](C(C)C)NC(=O)CNC1=O [CP1]
[1]
  IC50: 840 ± 130 nM
[2]
  Protection of HA from low pH-induced conversion to trypsin-susceptible conformation: inhibits the conversion of H1/PR8 HA to the post-fusion conformation
[3]
  Kd: 101 nM
[4]
  half-life / residence time t1/2 (range over HAs): 5 to 46 s
  slower dissociation (koff) compared to LP1: 9- to 180 fold
[5]
  KD: N.B.
[6]
  IC50: 52 ± 20 nM
[7]
  KD: N.B.
[8]
  KD: N.B.
H2N2 A/Adachi/2/1957 HA
  Kd: > 1000 nM
[9]
  KD: N.B.
[10]
  IC50: 49 nM and 50 nM
[11]
  KD: N.B.
[12]
  KD: N.B.
[13]
  KD: N.B.
[14]
  Kd: 91 nM
[15]
  Kd: 23 nM
[16]
  Kd: 128 nM
[17]; LLC-PK1
  recovery: 92.9%
[17]; + 5 µM GF120918
  efflux ratio: 2.97
  Papp B→A: 0.22 ± 0.12 ×10⁻⁶ cm/s
[17]; no inhibitor
  efflux ratio: 2.55
  Papp B→A: 0.19 ± 0.09 ×10⁻⁶ cm/s
[17]; LLC-PK1, pH 7.4
  Papp A→B: 0.07 ± 0.01 ×10⁻⁶ cm/s
[18]
  Kd: 1100 nM
[19]
  KD: N.B.
[20]
  KD: N.B.
[21]
  Kd: 2300 nM
[22]
  improvement in binding affinity versus linear peptide LP1: 60 fold
[22]; read-out: KD
  Kd: 54 nM
[22]; read-out: KD by SPR
  Kd: 50 nM
[23]
  Kd: > 1000 nM
[24]
  Neutralization activity against H5N1 virus (in words): modest activity
[25]
  IC50: 55 nM
[26]; LLC-PK1, Efflux ratio BA/AB, LLC-MDR1, + 5 µM GF120918
  efflux ratio: 1.36
[26]; LLC-PK1, Efflux ratio BA/AB, LLC-MDR1, no inhibitor
  efflux ratio: 1.57
[26]; LLC-PK1, Efflux ratio, text: LLC-parent and LLC-MDR1, in the presence and absence of elacridar (GF120918)
  efflux ratio: < 2
[26]; + 5 µM GF120918
  Papp A→B: 0.23 ± 0.04 ×10⁻⁶ cm/s
  Papp B→A: 0.32 ± 0.02 ×10⁻⁶ cm/s
[26]; no inhibitor
  Papp A→B: 0.21 ± 0.03 ×10⁻⁶ cm/s
  Papp B→A: 0.33 ± 0.08 ×10⁻⁶ cm/s
[27]
  KD: N.B.
[28]
  improvement in binding in AlphaLISA versus LP1: 60- to 440 fold
[28]; read-out: IC50 in AlphaLISA (range over HAs)
  IC50: 52 to 840 nM
[29]
  faster koff rate against H5 versus H1 HA: 14 fold
[30]
  Binding against group 2 or influenza B HAs in SPR: no binding
